In ChEMBL document CHEMBL1649492, “Population modeling and Monte Carlo simulation study of the pharmacokinetics and antituberculosis pharmacodynamics of rifampin in lungs” (Antimicrob Agents Chemother, 2009):
“And” between values parts separate entries of the source, which are not always exact repeats. Equal entries are not always repeated.

How the values were obtained:
[1] = tested on: Homo sapiens; assay: Volume of distribution in patient with tuberculosis at […], po administered as single dose; format: ADME, organism-based; set-up: route oral; conditions: in vivo
[2] = Volume of distribution in epithelial lining fluid of patient with tuberculosis at […], po administered as single dose; format: ADME, organism-based; set-up: route oral; conditions: human, in vivo
[3] = Volume of distribution in alveolar cells of patient with tuberculosis at […], po administered as single dose; format: ADME, organism-based, Pneumocyte; set-up: route oral; conditions: human, in vivo
[4] = Ratio of AUC (0 to 24 hrs) to MIC in plasma of patient with Mycobacterium tuberculosis infection at […], po administered as single dose; format: functional
[5] = Ratio of AUC (0 to 24 hrs) to MIC in epithelial lining fluid of patient with Mycobacterium tuberculosis infection at […], po administered as single dose; format: functional

In the case of `CO[C@H]1/C=C/O[C@@]2(C)Oc3c(C)c(O)c4c(O)c(c(/C=N/N5CCN(C)CC5)c(O)c4c3C2=O)NC(=O)/C(C)=C\C=C\[C@H](C)[C@H](O)[C@@H](C)[C@@H](O)[C@@H](C)[C@H](OC(C)=O)[C@@H]1C` [RIFAMPIN], the Vd [1] is reported as 11.56 L and 10.16 L and 8.05 L, the Vd [2] is reported as 102.6 L and 102.8 L and 52.1 L and the Vd [3] is reported as 49.94 L and 43.66 L and 33.65 L. The RatioAUC/MIC [4] was “>=271” and the RatioAUC/MIC [5] was “>=665”.
